Where two headings read alike, the source gives them in different places. Non-standard residues stand in square brackets, D forms with d. Residues, ends and D or L forms follow the SMILES beside them. ξ: configuration not given here. *: point of attachment. 5FAM = O=C1OC2(c3ccc(O)cc3Oc3cc(O)ccc32)c2ccc(C(=O)*)cc21; Biotin = O=C1N[C@H]2[C@H](CS[C@H]2CCCCC(=O)*)N1; Ac6c = NC1(C(=O)O)CCCCC1; ξDap = NCC(N)C(=O)O; X2 = O=C1CCCC1N*
Key:
sheep erythrocytes = assay: Hemolytic activity, release of hemoglobin; settings: for Absorbence at 405 nm: 40 μM peptide, one hour, 39° C.
Description: To determine whether native and modified pyrrhocoricin peptides were toxic to mammalian cells, several peptides from Example 1 above, a positive control, and a negative control were examined for hemolytic activity. Hemolytic activity was assayed with sheep erythrocytes suspended in Alsever's solution (BioWhittaker, Walkersville, Md.), and diluted with Dulbecco's phosphate-buffered saline, pH 7.2. Thirty μL of a 1% suspension of the red blood cells was incubated with agitation at 39° C. with 30 μL of 40 to 256 μM of each of the following peptides dissolved in phosphate buffered saline for one hour and centrifuged at 1000 g for five minutes. Fifty μL of the supernatant was collected and the release of hemoglobin was detected by measuring the ultraviolet absorbences of triplicate samples of the 40 μM or 256 μM test peptides and the control peptides at 405 nm.

[1] = test system: Agrobacterium tumefaciens; settings: 24 h
Description: (§1) Growth inhibition assays were performed using the peptides of Example 1 and the Gram positive microorganisms Micrococcus luteus and Bacillus megaterium, and the Gram negative microorganisms, Escherichia coli D22, Agrobacterium tumefaciens, and Salmonella typhimurium. Anti-bacterial assays were performed in sterilized 96-well plates (Nunc F96 microtiter plates) with a final volume of 100 μl as described in Bulet (1996), cited above. Briefly, 90 μl of a suspension of a midlogarithmic phase bacterial culture at an initial 600 nm UV absorbence of 0.001 in Luria-Bertani rich nutrient medium was added to 10 μl of serially diluted peptides in sterilized water. The final peptide concentrations ranged between 0.15 and 80 μM. The plates were incubated at 30° C. for 24 hours with gentle shaking, and the growth inhibition was measured by recording the increase of the UV absorbence at 600 nm on an SLT Labinstruments 400 ATC microplate reader. The experiments were conducted over a 7-month period.

Bacillus megaterium = test system: Bacillus megaterium
Description: as §1

Micrococcus luteus = test system: Micrococcus luteus
Description: as §1

Salmonella typhimurium = test system: Salmonella typhimurium
Description: as §1

[2] = human sera, preliminary metabolism studies
Description: Owing to the fact that the use of diluted serum increases peptide recovery as well as retards the reaction kinetics to a manageable rate, the experiments were conducted using 25% aqueous sera.
For serum stability studies, 10 μl of an aqueous peptide stock solution containing about 0.8 mg/ml peptide was added to 200 μl 25% aqueous pooled mouse or human serum (Sigma, St. Louis, Mo.), according to the process described in M. F. Powell et al, Pharmacol Res, 10: 1268–1273 (1993). The peptide-serum mixture was thermostated at 37° C. After 0 minutes, 45 minutes, 2 hours and 4 hours, three samples of each peptide were taken and precipitated by the addition of 40 μl 15% aqueous trichloroacetic acid. The samples were stored at 4° C. for 20 minutes and centrifuged. The peptides and some remaining serum proteins were recovered in the supernatant after the trichloroacetic acid precipitation. The supernatants were immediately frozen on dry-ice and 220 μl of each were analyzed on RP-HPLC. A mouse serum and two different batches of the same SIGMA catalog number of human sera (human 1, approximately 1 year old, and human 2, approximately 1 month old) were also used.
The lyophilized samples were redissolved in 0.1 aqueous TFA and submitted for matrix assisted laser desorption/ionization (MALDI-MS).
The missing residues are indicated (e.g—C2 means that the C-terminal two residues are cleaved off). […] In Table 4, the relative amounts of the degradation products are estimated based on the MALDI-MS peak heights. 0=not detected; 1=very weak (below 5000), 2=weak (5–10000), 3=medium (10–15000), 4=strong (15000-uncleaved molecular ion at 25–30000), 5=very strong (above uncleaved molecular ion).

Escherichia coli D22 = settings: read-out: IC50 in μM against Escherichia coli D22; 30° C., 24 hours; for Peptide 22 original assay (a)
Description: as §1

COS cells = assay: Direct killing of immortalized COS cells; format: cell-based
Description: In another toxicity assay, COS cell survival was studied for pyrrhocoricin and cecropin B (Bachem Biosciences, King of Prussia, Pa.) as the positive control.

[3] = read-out: IC50 in μM against Bacillus megaterium, 30° C., 24 hours, for Peptide 22 original assay (a)

Molecule	IC50 [1] [µM]	IC50 (Micrococcus luteus; 24 h) [µM]	IC50 (Salmonella typhimurium; murium, 24 h) [µM]	IC50 (Bacillus megaterium; [3]) [µM]	also measured
CC[C@H](C)[C@H](NC(=O)CN)C(=O)NCC(=O)N[C@@H](C)C(=O)N[C@H](C(=O)N[C@@H](CC(C)C)C(=O)N[C@@H](CCCCN)C(=O)N[C@H](C(=O)N[C@@H](CC(C)C)C(=O)N[C@H](C(=O)N[C@H](C(=O)NCC(=O)N[C@@H](CC(C)C)C(=O)N1CCC[C@H]1C(=O)N[C@@H](C)C(=O)N[C@@H](CC(C)C)C(=O)N[C@H](C(=O)N[C@@H](CO)C(=O)N[C@@H](Cc1c[nH]c2ccccc12)C(=O)N[C@H](C(=O)N[C@@H](CCCCN)C(=O)N[C@@H](CCCNC(=N)N)C(=O)N[C@@H](CCCCN)C(=O)N[C@@H](CCCNC(=N)N)C(=O)N[C@@H](CCC(N)=O)C(=O)N[C@@H](CCC(N)=O)C(N)=O)[C@@H](C)CC)[C@@H](C)CC)[C@@H](C)O)[C@@H](C)O)C(C)C)C(C)C [Melittin, reference compound]					lowest concentration that lysed sheep erythrocytes (sheep erythrocytes): 5 µM; Absorbence at 405 nm (sheep erythrocytes): 2.99 ± 0.06; lysis of erythrocytes (in words) (sheep erythrocytes; final concentration of 40 μM): lysed the erythrocytes
CC[C@H](C)[C@H](NC(=O)[C@@H]1CCCN1C(=O)[C@H](CCCNC(=N)N)NC(=O)[C@@H]1CCCN1C(=O)[C@@H]1CCCN1C(=O)[C@@H](NC(=O)[C@@H]1CCCN1C(=O)[C@H](CCCNC(=N)N)NC(=O)[C@@H]1CCCN1C(=O)[C@H](CC(C)C)NC(=O)[C@H](Cc1ccc(O)cc1)NC(=O)[C@H](CO)NC(=O)CNC(=O)[C@H](CCCCN)NC(=O)[C@H](CC(=O)O)NC(=O)C1(N)CCCCC1)[C@@H](C)O)C(=O)N[C@@H](Cc1ccc(O)cc1)C(=O)N[C@@H](CC(N)=O)C(=O)N[C@@H](CCCNC(=N)N)C(=O)N[C@@H](CC(N)=O)C(N)=O [Peptide 6] (H-[Ac6c]DKGSYLPRPTPPRPIYNRN-NH2; N-terminus and C-terminus assumed)	1.25	5	2.5		IC50 (Bacillus megaterium; Bacillus, 24 h): 10 µM
CC[C@H](C)[C@H](NC(=O)[C@@H]1CCCN1C(=O)[C@H](CCCNC(=N)N)NC(=O)[C@@H]1CCCN1C(=O)[C@@H]1CCCN1C(=O)[C@@H](NC(=O)[C@@H]1CCCN1C(=O)[C@H](CCCNC(=N)N)NC(=O)[C@@H]1CCCN1C(=O)[C@H](CC(C)C)NC(=O)[C@H](Cc1ccc(O)cc1)NC(=O)[C@H](CO)NC(=O)CNC(=O)[C@H](CCCCN)NC(=O)[C@H](CC(=O)O)NC(=O)[C@@H](NC(=O)[C@H](CCCCN)NC(C)=O)C(C)C)[C@@H](C)O)C(=O)N[C@@H](Cc1ccc(O)cc1)C(=O)N[C@@H](CC(N)=O)C(=O)N[C@@H](CCCNC(=N)N)C(=O)NC1CCCC1=O (stereo partly shown) [Peptide 8] (Ac-KVDKGSYLPRPTPPRPIYNR-X2; N-terminus and C-terminus assumed)	1.25	5	2.5		IC50 (Bacillus megaterium; Bacillus, 24 h): 20 µM
CC[C@H](C)[C@H](NC(=O)[C@@H]1CCCN1C(=O)[C@H](CCCNC(=N)N)NC(=O)[C@@H]1CCCN1C(=O)[C@@H]1CCCN1C(=O)[C@@H](NC(=O)[C@@H]1CCCN1C(=O)[C@H](CCCNC(=N)N)NC(=O)[C@@H]1CCCN1C(=O)[C@H](CC(C)C)NC(=O)[C@H](Cc1ccc(O)cc1)NC(=O)[C@H](CO)NC(=O)CNC(=O)[C@H](CCCCN)NC(=O)[C@H](CC(=O)O)NC(=O)[C@H](N)C(C)C)[C@@H](C)O)C(=O)N[C@@H](Cc1ccc(O)cc1)C(=O)N[C@@H](CC(N)=O)C(=O)N[C@@H](CCCNC(=N)N)C(=O)N[C@H](CC(N)=O)C(N)=O [Peptide 12] (H-[dV]DKGSYLPRPTPPRPIYNR[dN]-NH2; N-terminus and C-terminus assumed)	2.5	10	5	> 80	
CC[C@H](C)[C@@H]1NC(=O)[C@@H]2CCCN2C(=O)[C@H](CCCNC(=N)N)NC(=O)[C@@H]2CCCN2C(=O)[C@@H]2CCCN2C(=O)[C@H]([C@@H](C)O)NC(=O)[C@@H]2CCCN2C(=O)[C@H](CCCNC(=N)N)NC(=O)[C@@H]2CCCN2C(=O)[C@H](CC(C)C)NC(=O)[C@H](Cc2ccc(O)cc2)NC(=O)[C@H](CO)NC(=O)CNC(=O)[C@H](CCCCN)NC(=O)[C@H](CC(=O)O)NC(=O)[C@H](C(C)C)NC(=O)[C@H](CCCCN)NC(=O)[C@H](CC(C)C)NC(=O)[C@@H]2CCCN2C(=O)[C@H](CCCNC(=N)N)NC(=O)[C@@H]2CCCN2C(=O)[C@H]([C@@H](C)O)NC(=O)[C@@H]2CCCN2C(=O)[C@@H]2CCCN2C(=O)[C@H](CCCNC(=N)N)NC(=O)[C@H](CC(N)=O)NC(=O)[C@H](CCCNC(=N)N)NC(=O)[C@H](CC(N)=O)NC(=O)[C@H](Cc2ccc(O)cc2)NC1=O [Peptide 17] (cyclo(KVDKGSYLPRPTPPRPIYNRNRPPTPRPL))	2.5	0.6	5		endopeptidase cleavage site [2]: between Asn 18 and Arg19; IC50 (Bacillus megaterium; Bacillus, 24 h): 2.5 µM
CC[C@H](C)[C@H](NC(=O)[C@@H]1CCCN1C(=O)[C@H](CCCNC(=N)N)NC(=O)[C@@H]1CCCN1C(=O)[C@@H]1CCCN1C(=O)[C@@H](NC(=O)[C@@H]1CCCN1C(=O)[C@H](CCCNC(=N)N)NC(=O)[C@@H]1CCCN1C(=O)[C@H](CC(C)C)NC(=O)[C@H](Cc1ccc(O)cc1)NC(=O)[C@H](CO)NC(=O)CNC(=O)[C@H](CCCCN)NC(=O)[C@H](CC(=O)O)NC(=O)[C@@H](NC(=O)[C@H](CCCCN)NC(=O)CCCC[C@@H]1SC[C@@H]2NC(=O)N[C@@H]21)C(C)C)[C@@H](C)O)C(=O)N[C@@H](Cc1ccc(O)cc1)C(=O)N[C@@H](CC(N)=O)C(=O)N[C@@H](CCCNC(=N)N)C(=O)N[C@@H](CC(N)=O)C(N)=O [Peptide 18] (Biotin-KVDKGSYLPRPTPPRPIYNRN-NH2)				> 80	
CC[C@H](C)[C@H](NC(=O)[C@@H]1CCCN1C(=O)[C@H](CCCNC(=N)N)NC(=O)[C@@H]1CCCN1C(=O)[C@@H]1CCCN1C(=O)[C@@H](NC(=O)[C@@H]1CCCN1C(=O)[C@H](CCCNC(=N)N)NC(=O)[C@@H]1CCCN1C(=O)[C@H](CC(C)C)NC(=O)[C@H](Cc1ccc(O)cc1)NC(=O)[C@H](CO)NC(=O)CNC(=O)[C@H](CCCCN)NC(=O)[C@H](CC(=O)O)NC(=O)[C@@H](NC(=O)[C@H](CCCCN)NC(=O)c1ccc2c(c1)C(=O)OC21c2ccc(O)cc2Oc2cc(O)ccc21)C(C)C)[C@@H](C)O)C(=O)N[C@@H](Cc1ccc(O)cc1)C(=O)N[C@@H](CC(N)=O)C(=O)N[C@@H](CCCNC(=N)N)C(=O)N[C@@H](CC(N)=O)C(N)=O [Peptide 19] (5FAM-KVDKGSYLPRPTPPRPIYNRN-NH2)				> 80	
CC[C@H](C)[C@H](NC(=O)[C@@H]1CCCN1C(=O)[C@H](CCCNC(=N)N)NC(=O)[C@@H]1CCCN1C(=O)[C@@H]1CCCN1C(=O)[C@@H](NC(=O)[C@@H]1CCCN1C(=O)[C@H](CCCNC(=N)N)NC(=O)[C@@H]1CCCN1C(=O)[C@H](CC(C)C)NC(=O)[C@H](Cc1ccccc1)NC(=O)[C@H](C)NC(=O)CNC(=O)[C@H](CCCCN)NC(=O)[C@H](CC(=O)O)NC(=O)C1(N)CCCCC1)[C@@H](C)O)C(=O)N[C@@H](Cc1ccc(O)cc1)C(=O)N[C@@H](CC(N)=O)C(=O)N[C@@H](CCCNC(=N)N)C(=O)NC(CNC(C)=O)C(N)=O (stereo partly shown) [Peptide 23] (H-[Ac6c]DKGAFLPRPTPPRPIYNR[ξDap](Ac)-NH2)		5			IC50 (Bacillus megaterium; Bacillus, 24 h): 40 µM; IC50 (Escherichia coli D22): 20 µM
CC[C@H](C)[C@H](NC(=O)[C@H](CCCNC(=N)N)NC(=O)[C@@H](NC(=O)[C@H](Cc1ccc(O)cc1)NC(=O)[C@@H](NC(=O)[C@H](C)N)C(C)C)[C@@H](C)O)C(=O)N[C@@H](CCSC)C(=O)N[C@@H](CCSC)C(=O)N[C@@H](CC(N)=O)C(=O)NCC(=O)NCC(=O)N[C@@H](CCCNC(=N)N)C(=O)N[C@@H](CC(C)C)C(=O)N[C@@H](CCCCN)C(=O)N[C@@H](CCCNC(=N)N)C(N)=O [Peptide 31D, reference compound]					Absorbence at 405 nm (sheep erythrocytes): 0.160 ± 0.021
Ac-KVDKGSYLPRPTPPRPIYNRD-NH2 (C-terminus assumed) [Peptide 20]	40			> 80	IC50 (Micrococcus luteus; read-out: IC50 in μM against Micrococcus luteus, 30° C., 24 hours, for Peptide 22 original assay (a)): > 80 µM; IC50 (Salmonella typhimurium; read-out: IC50 in μM against Salmonella typhimurium, 30° C., 24 hours, for Peptide 22 original assay (a)): > 80 µM
Ac-KVDKGSYLPRPTPPRPIYNRN-NH2 (C-terminus assumed) [Peptide 5]	5	40	40	> 80	
Ac-KVDKVDKGSYLPRPTPPRPIYNRN-NH2 (C-terminus assumed) [Peptide 3]	10	80	5	> 80	
Ac-RVDKGSYLPRPTPPRPIYNRN-NH2 (C-terminus assumed) [Peptide 4]	2.5	5	2.5	> 80	
Cecropin [reference compound]					Cell Count after Treatment (COS cells; 5 μM peptide): 6 ± 6; Cell Count after Treatment (COS cells; 10 μM peptide): 6.7 ± 0.3; Cell Count after Treatment (COS cells; 50 μM peptide): 7.3 ± 3.7; effect on COS cell count (in words) (COS cells; at as low as 5 μM concentration): reduced the cell count

Source: US7015309B1 (The Wistar Institute of Anatomy and Biology, priority 1999, dated 2006)
